Values of other authors as cited in publication PMC10017685 (Nature Communications, 2023).

System: human erythrocytes
Parameters: method as in DBAASP
Details: cited from earlier work

Sequence	Class (dedicated toxicity dataset used for toxicity classifier evaluation)
GILSSLWKKLKKIIAK [DBAASP_8913]	0
GILKSLLKKLKKIIAK [DBAASP_8908]	0

Same assay, conditions: toxicity class label 1 or 0, meaning of the labels not given; DBAASP HC50 data, human erythrocytes; ref DBAASP; cited from earlier work

Sequence	Class (dedicated toxicity dataset used for toxicity classifier evaluation)
KKLIKKILKIL [DBAASP_5047]	0
FLSLIPKIISAISALIKHF [DBAASP_12630]	1
GFKDLLKKAAKALVKTVLF [DBAASP_4906]	1
ILPIRSLIKKLL [DBAASP_5721]	0
FVDLKKIANIINSIF [DBAASP_6701]	0
ILPFKFPFFPFRR [DBAASP_4761]	0
FLPLIAGVAASILPKIFCFITKKC [DBAASP_6170]	1
VRRFPYYWPFLRR [DBAASP_14262]	0
FLSTLLNVASKVVPTLFCKITKKC [DBAASP_1891]	0
KQKLAKLKAKLQKLKQKLAKL [DBAASP_10912]	0
FLKWALKWAAK [DBAASP_16467]	0
GFKDLLKGAAKALVKTVLK [DBAASP_11235]	0
GVLKRIKTLV [DBAASP_8624]	0
VRRFPWYYPFLRR [DBAASP_14263]	0
KWKVFKKAEKMIRNIRNKIVK [DBAASP_11863]	0
KKLFKKILKYL [DBAASP_197]	0
FLPIVAGLAANFLPKIVCKITKKC [DBAASP_1889]	1
FLQHIIGALTHIF [DBAASP_10246]	0
INWIKIGKKIIASL [DBAASP_18234]	0
WKKWWKKWWKKW [DBAASP_10848]	0
GIMSSLMKKLAAHIAK [DBAASP_8893]	0
GLKEVAHSAKKFAKGFISGLTGS [DBAASP_5713]	0

Sequence	Class (dedicated toxicity dataset used for toxicity classifier evaluation)
GKLGPLLKIAAKVGSNLL [DBAASP_11237]	0
FPVTWPTKWRKG [DBAASP_9717]	0
FLPLKKLRFGLL [DBAASP_5722]	0
FLSLALAALPKFLCLVFKKC [DBAASP_1468]	1
FLPGLIKAAVGVGSTILCKITKKC [DBAASP_8373]	0
SAVGRHLRRFGLRKHRKH [DBAASP_7659]	0
FWGFLGKLAMKAVPSLIGGNKK [DBAASP_8440]	0
FLSLIPKIISAISALINHF [DBAASP_12629]	1
GLASTIGSLLGKFAKGGAQAFLQPK [DBAASP_2288]	0
VQWRIRVAVIRK [DBAASP_7680]	0
FWSTIWNAAKSLI [DBAASP_18164]	1
GLLKRIKSLL [DBAASP_8600]	0
FFPIIAGMAAKLIPSLFCKITKKC [DBAASP_4209]	1
RIWFQNRRMRWRR [DBAASP_8801]	0
IKWKKLLRAAKRIL [DBAASP_2253]	0
GLKALKKVFQGIHKAIKLINNHVQ [DBAASP_6928]	0
ALLKTMLKKLGTMAL [DBAASP_10104]	0
KRIVQRIKDFLR [DBAASP_146]	0
VKRFKKFFRKFKKFV [DBAASP_16446]	0
SAVGRHGRRFGLRKHRKH [DBAASP_3348]	0
IKKIIKKI [DBAASP_10843]	0
WCRRYRVLVRGVLVRYRRCW [DBAASP_13507]	0

Sequence	Class (dedicated toxicity dataset used for toxicity classifier evaluation)
IIKKIIKKIIKKI [DBAASP_13881]	0
GVWSTVLGGLKKFAKGGLEAIVNPK [DBAASP_3155]	0
AVDLAKIANKVLSSLF [DBAASP_2207]	0
FLSGIVGMLGKLF [DBAASP_2204]	1
RFRRLRKKTRKRLKKI [DBAASP_7143]	0
SILPTIVSFLSKVF [DBAASP_13348]	1
FLPILASLAAKLGPKLFCLVTKKC [DBAASP_3537]	1
GKLGPLLKIAAKVGSKLL [DBAASP_11238]	0
ILPILSLIGGLL [DBAASP_3346]	0
FFGWLIKGAIHAGKAIHGLIHRRRH [DBAASP_3173]	1
FLQGIWDTVGKWL [DBAASP_18166]	0
FFHHFARGIVHVGKTIHRLVTG [DBAASP_9009]	0
ALWKTLLKKVLKAAA [DBAASP_7356]	1
GIGKFLKKAKKFGKAFVKILKK [DBAASP_763]	0
SKVGRHLRRFLHRAHRKL [DBAASP_7664]	0
HFLGTKVNLAKKIL [DBAASP_5020]	0
RWCRRYRVRVRGVLVYAYVCW [DBAASP_13505]	0
GLKALKKVFKGIHKAIKLINKHVQ [DBAASP_6931]	0
LKKVLKAAA [DBAASP_7359]	0
GLFDIWKKWRWRR [DBAASP_10053]	0
IKKILSKIKKLLK [DBAASP_7154]	0
GLKALKKVFKGIHKAIKLINKHVK [DBAASP_6932]	0

Sequence	Class (dedicated toxicity dataset used for toxicity classifier evaluation)
SKVGRHGRRFGHRAHRKL [DBAASP_7662]	0
ILGKLLSTAAGLLKNL [DBAASP_4363]	0
LWGALLGLGSTLLSKL [DBAASP_18167]	1
GLNALKKVFKGIHEAIKLINNHVQ [DBAASP_6924]	0
RWFKIQLQIRRWKNKK [DBAASP_8805]	0
GWKDLLKGAAKALVKTVF [DBAASP_11233]	0
ILGKLLSTAAKLLSNL [DBAASP_4362]	1
GLLKIIKTLL [DBAASP_3137]	1
KALWKTMLKKLGTMAL [DBAASP_10105]	0
GLFDVIKKLLKKIKGL [DBAASP_8594]	1
KLLKVIKKLL [DBAASP_3153]	0
WWWRRRIW [DBAASP_10633]	0
FIGMIPGLIGGLISAIK [DBAASP_9867]	1
MPLSWFFPRTWGKR [DBAASP_9722]	0
KKKLAKLKLGAKLKLKGKLGA [DBAASP_13729]	0
FLPLILPSIVTALSSFLKQG [DBAASP_8197]	0
FWGFLGKLAMKAVPSLIGGNKSSSK [DBAASP_8439]	0
GFRKIVQKIRDFLRNLV [DBAASP_11853]	0
GLLKRIKILL [DBAASP_3144]	0
GWKKWLRKGAKHLGQAAIKGLAS [DBAASP_1435]	0
FLSAITSLLGKLL [DBAASP_4212]	0
